Reference: doi:10.1101/2023.05.15.540887, “Comparative analysis of drug-like EP300/CREBBP acetyltransferase inhibitors” (bioRxiv, 2023)

What was measured:
[1] = test system: histone H3 acetylation in MCF-7 cells; assay: Western blot analysis of histone acetylation (H3K18Ac, H3K27Ac, H3K23Ac) in MCF-7 cells; assay type: cell-based, human; settings: 3 h, 8 nM – 5 μM, compared among 1-3
Procedure: Next, we sought to quantitatively benchmark the properties of 1-3 in living cells. EP300 and CREBBP modify a wide variety of substrates in biochemical experiments and upon ectopic overexpression.[2] However, two well-characterized cellular histone lysine substrates of these enzymes are H3K18 and H3K27.[26] Even though H3K18Ac is the more abundant of the two markers, H3K27Ac is also of great interest due to its association with active enhancer regions. […] Cells were treated with escalating doses of 1-3 and harvested at 3 h to avoid overt cytotoxicity and allow the direct effects on acetylation to be observed (Fig. 3a). […] Control experiments indicated levels of H3K23Ac, which is not regulated by EP300/CREBBP, were not affected.
MCF-7 cells were plated in 1700 µL culture medium at 1 x 10^6 cells per well in 6-well dishes. After 16-24 h cells were treated with 300 µL of 1-3-containing media to yield a final concentration of 8 nM, 40 nM, 200 nM, 1 µM, or 5 µM EP300/CREBBP inhibitor (0.1% final concentrations of DMSO). Controls were treated with vehicle DMSO (0.1%). […]
Histone samples were quantified using the Precision Red Protein Assay (Cytoskeleton #ADV02). […]

[2] = test system: MCF10A PANK4 KO+EV cells; assay: Sulforhodamine B cell growth assay, MCF10A PANK4 KO+EV; assay type: cell-based, human
[3] = test system: K-562; assay: NCI-60 growth inhibition (sulforhodamine B); assay type: cell-based, human; settings: K-562 (Leukemia), negative log of Molar conc., LCONC -8
[4] = test system: RPMI-8226; assay: NCI-60 growth inhibition (sulforhodamine B); assay type: cell-based, human; settings: RPMI-8226 (Leukemia), negative log of Molar conc., LCONC -8
[5] = test system: A549/ATCC; assay: NCI-60 growth inhibition (sulforhodamine B); assay type: cell-based, human; settings: A549/ATCC (Non-Small Cell Lung Cancer), negative log of Molar conc., LCONC -8
[6] = test system: SK-MEL-5; assay: NCI-60 growth inhibition (sulforhodamine B); assay type: cell-based, human; settings: SK-MEL-5 (Melanoma), negative log of Molar conc., LCONC -8
[7] = test system: UACC-62; assay: NCI-60 growth inhibition (sulforhodamine B); assay type: cell-based, human; settings: UACC-62 (Melanoma), negative log of Molar conc., LCONC -8
[8] = test system: OVCAR-4; assay: NCI-60 growth inhibition (sulforhodamine B); assay type: cell-based, human; settings: OVCAR-4 (Ovarian Cancer), negative log of Molar conc., LCONC -8
[9] = test system: OVCAR-3; assay: NCI-60 growth inhibition (sulforhodamine B)
[10] = Homo sapiens, read-out: GI50 NLOGVALUE
[11] = Homo sapiens, read-out: IC50 NLOGVALUE (converted)
[12] = Homo sapiens, read-out: LC50 NLOGVALUE
[13] = Homo sapiens, read-out: GI50 NLOGVALUE (converted)
[14] = Homo sapiens, read-out: IC50 NLOGVALUE

Which “inhibition of histone acetylation (H3K18Ac, H3K27Ac), Western blot” value [1] does the source give for `C[C@H](CN[C@@H](C(=O)Nc1ccc(-c2cnn(C)c2)cn1)c1ccccc1)c1ccc(C#N)cc1` [CPI-1612] here?
The value was “most potent activity”.

And the IC50 ([2]; Homo sapiens, MCF-10A KO+EV, 72 h)?
Its IC50 is 0.084 µM.

And the “growth inhibition activity at 1 μM” value ([2]; PANK4 KO+EV cells, 1 μM)?
Its value is “remains active”.

What about the GI50 ([3]; Homo sapiens, K562, read-out: GI50 NLOGVALUE) of the same molecule?
Its GI50 is < 0.01 µM.

And the IC50 ([3]; Homo sapiens, K562, read-out: IC50 NLOGVALUE)?
The IC50 was < 0.01 µM.

And the CC50 ([3]; Homo sapiens, K562, read-out: LC50 NLOGVALUE)?
Its CC50 is > 100 µM.

And the “TGI NLOGVALUE” [3]?
Its value is 4.

And the GI50 [4, 10]?
The GI50 was < 0.01 µM.

What about the IC50 [4, 11] of the same molecule?
The IC50 was 0.0126 µM.

What about the CC50 [4, 12] of the same molecule?
The CC50 was > 100 µM.

What about the “TGI NLOGVALUE” [4] of the same molecule?
The value was 4.56.

What about the “TGI NLOGVALUE” [5] of the same molecule?
Its value is 4.

And the GI50 [5, 13]?
Its GI50 is 3.31 µM.

And the IC50 [5, 11]?
Its IC50 is 19.1 µM.

And the GI50 [6, 10]?
Its GI50 is < 0.01 µM.

And the IC50 [6, 11]?
The IC50 was 0.0263 µM.

What about the CC50 [6, 12] of the same molecule?
Its CC50 is > 100 µM.

What about the “TGI NLOGVALUE” [6] of the same molecule?
Its value is 4.48.

What about the GI50 [7, 10] of the same molecule?
The GI50 was > 100 µM.

What about the IC50 [7, 14] of the same molecule?
The IC50 was > 100 µM.

And the CC50 [7, 12]?
The CC50 was > 100 µM.

What about the “TGI NLOGVALUE” [7] of the same molecule?
Its value is 4.

And the GI50 [8, 13]?
The GI50 was 2.04 µM.

And the IC50 [8, 14]?
Its IC50 is > 100 µM.

And the CC50 [8, 12]?
The CC50 was > 100 µM.

What about the “TGI NLOGVALUE” [8] of the same molecule?
The value was 4.

And the GI50 ([9]; Homo sapiens, OVCAR-3, read-out: GI50 NLOGVALUE)?
Its GI50 is 0.186 µM.

What about the IC50 ([9]; Homo sapiens, OVCAR-3, read-out: IC50 NLOGVALUE) of the same molecule?
The IC50 was 24 µM.

What about the CC50 ([9]; Homo sapiens, OVCAR-3, read-out: LC50 NLOGVALUE) of the same molecule?
Its CC50 is > 100 µM.

What about the “TGI NLOGVALUE” ([9]; OVCAR-3 (Ovarian Cancer), negative log of Molar conc., LCONC -8) of the same molecule?
Its value is 4.
